The source of these data is ChEMBL document CHEMBL1131595, “Chemoprotective properties of phenylpropenoids, bis(benzylidene)cycloalkanones, and related Michael reaction acceptors: correlation of potencies as phase 2 enzyme inducers and radical scavengers” (J Med Chem, 1998).

The nature of this assay: Scavenging activity of compound (superoxide radicals generated by the oxidation of xanthine and xanthine oxidase),expressed as the percent quenching of luminescence of lucigenin at 50 nM concentration.

Consider `O=C1/C(=C/c2ccccc2)CCCC/C1=C\c1ccccc1`, for which the Free radical scavenging worked out at 11%.
The compound `O=C1/C(=C/c2ccccc2)CC/C1=C\c1ccccc1` came in with a Free radical scavenging of 10%.
For `O=C1/C(=C/c2ccccc2)CCC/C1=C\c1ccccc1` the value was 11%; for `COc1ccccc1/C=C1\CCC/C(=C\c2ccccc2OC)C1=O`, 19%.
With `COc1cc(/C=C2\CCC/C(=C\c3ccc(O)c(OC)c3)C2=O)ccc1O`, the Free radical scavenging was 30%.
The same measure for `O=C1/C(=C/c2ccccc2O)CC/C1=C\c1ccccc1O`: 70%; for `O=C1/C(=C/c2ccccc2O)CCC/C1=C\c1ccccc1O`: 42%.
